# Assay results: patent publication US5140009A (Tap Pharmaceuticals, Inc., priority 1990, dated 1992)
# Numbered stars: 1 amine (or outer) side, 2 acyl side, 3 side chain; on linkers, the order of the positions; unused ones are H or OH. Square brackets hold non-standard residues; d marks the D form. Peptide text beside a SMILES is read from it. * marks the point of attachment. Propanoyl(3-indol-3-yl) = O=C(CCc1c[nH]c2ccccc12)*; Indole2carbonyl(5-F) = O=C(c1cc2cc(F)ccc2[nH]1)*; Phenylacetyl(4-CF3) = O=C(Cc1ccc(C(F)(F)F)cc1)*; Propanoyl(3-(4-F-phenyl)) = O=C(CCc1ccc(F)cc1)*; Propanoyl(3-(4-MeO-Ph)) = COc1ccc(CCC(=O)*)cc1; Propanoyl(3-(4-Cl-Ph)) = O=C(CCc1ccc(Cl)cc1)*; Phe(4-Cl) = N[C@@H](Cc1ccc(Cl)cc1)C(=O)O; Phenylacetyl(4-Cl) = O=C(Cc1ccc(Cl)cc1)*; 1Nal = N[C@@H](Cc1cccc2ccccc12)C(=O)O; Desaminotyrosyl = O=C(CCc1ccc(O)cc1)*; d2Nal = N[C@H](Cc1ccc2ccccc2c1)C(=O)O; X16 = O=C(c1cc2ccccc2[nH]1)*; Morpholide = C1CN(*)CCO1; X15 = O=C(Cc1ccc(O)cc1)*; CO = O=C([*:1])[*:2]
# Molecular target: T1, LHRH receptors (Rattus norvegicus, UniProt P30969)
# T1 construct: Pituitary membranes containing LHRH receptors are prepared in batches from quick-frozen rat pituitaries; tissue Hilltop Labs; host or cells: rat pituitary membranes
# T1 sequence (P30969 1-327): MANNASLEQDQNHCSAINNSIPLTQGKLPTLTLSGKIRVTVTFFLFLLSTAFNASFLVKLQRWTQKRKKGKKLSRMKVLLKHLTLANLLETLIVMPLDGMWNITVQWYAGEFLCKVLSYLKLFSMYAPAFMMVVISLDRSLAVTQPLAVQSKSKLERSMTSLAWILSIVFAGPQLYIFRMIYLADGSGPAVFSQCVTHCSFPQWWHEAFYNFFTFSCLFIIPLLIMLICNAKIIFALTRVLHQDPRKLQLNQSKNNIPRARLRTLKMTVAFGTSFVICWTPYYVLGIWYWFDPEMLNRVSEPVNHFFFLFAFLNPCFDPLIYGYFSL
# Experiment: Receptor Binding (radioligand receptor binding assay)
# Conditions: table 3; rat pituitary membranes, radioiodinated [D-Leu^6 -des Gly^10 ]-LHRH ethyl amide 50 pM, 2 hours at 4° C.; read-out: Receptor Binding pkI (converted)
row,SMILES,Ki
1,"CCNC(=O)[C@@H]1CCCN1C(=O)[C@H](CCCNC(=N)N)NC(=O)[C@H](CC(C)C)NC(=O)[C@@H](Cc1ccc(O)cc1)NC(=O)[C@H](Cc1ccc(O)cc1)NC(=O)[C@H](CO)NC(=O)[C@@H](Cc1ccc(O)cc1)NC(=O)CCc1ccc(F)cc1 [Compound 93, (3-9)[N-(3-(4-Fluorophenyl)propionyl) -D-Tyr^3,6 -Pro^9 NHEt]LHRH] ({Propanoyl(3-(4-F-phenyl))}-[dY]SY[dY]LRP-NHEt)",0.0158 nM
2,"CCNC(=O)[C@@H]1CCCN1C(=O)[C@H](CCCNC(=N)N)NC(=O)[C@H](CC(C)C)NC(=O)[C@@H](Cc1ccc2ccccc2c1)NC(=O)[C@H](Cc1ccc(O)cc1)NC(=O)[C@H](CO)NC(=O)[C@@H](Cc1c[nH]c2ccccc12)NC(=O)CCc1ccc(F)cc1 [Compound 94, (3-9)[N-(3-(4-Fluorophenyl)propionyl) -D-Trp^3 -D-2-Nal^6 -Pro^9 NHEt]LHRH] ({Propanoyl(3-(4-F-phenyl))}-[dW]SY[d2Nal]LRP-NHEt)",0.309 nM
3,"CCNC(=O)[C@@H]1CCCN1C(=O)[C@H](CCCN=C(N)N)NC(=O)[C@H](CC(C)C)NC(=O)[C@@H](Cc1c[nH]c2ccccc12)NC(=O)[C@H](Cc1ccc(O)cc1)NC(=O)[C@@H]1CCCN1C(=O)[C@@H](Cc1c[nH]c2ccccc12)NC(=O)CCc1ccc(F)cc1 [Compound 100, (3-9)[N-(3-(4-Fluorophenyl)propionyl)-D -Trp^3,6 -Pro^4,9 NHEt]LHRH] ({Propanoyl(3-(4-F-phenyl))}-[dW]PY[dW]LRP-NHEt)",2.88 nM
4,"CCNC(=O)[C@@H]1CCCN1C(=O)[C@H](CCCN=C(N)N)NC(=O)[C@H](CC(C)C)NC(=O)[C@@H](Cc1c[nH]c2ccccc12)NC(=O)[C@H](Cc1ccc(O)cc1)NC(=O)[C@H](CO)NC(=O)[C@H](Cc1c[nH]c2ccccc12)NC(=O)Cc1ccc(O)cc1 [Compound 105, (3-9)[N-(4-Hydroxyphenyl)acetyl-Trp^3 -D -Trp^6 -Pro^9 NHEt]LHRH] (X15-WSY[dW]LRP-NHEt)",0.562 nM
5,"CCNC(=O)[C@@H]1CCCN1C(=O)[C@H](CCCNC(=N)N)NC(=O)[C@H](CC(C)C)NC(=O)[C@@H](Cc1c[nH]c2ccccc12)NC(=O)[C@H](Cc1ccc(O)cc1)NC(=O)[C@H](CO)NC(=O)[C@@H](Cc1c[nH]c2ccccc12)NC(=O)[C@H](Cc1ccccc1)NC(=O)N1CCOCC1 [Compound 107, (2 9)[N-(N-alpha-Morpholinocarbonyl)-Phe^2 -D-Trp^3,6 -Pro^9 NHEt]LHRH] ({Morpholide-CO}-F[dW]SY[dW]LRP-NHEt)",0.257 nM
6,"CCNC(=O)[C@@H]1CCCN1C(=O)[C@H](CCCNC(=N)N)NC(=O)[C@H](CC(C)C)NC(=O)[C@@H](Cc1c[nH]c2ccccc12)NC(=O)[C@H](Cc1ccc(O)cc1)NC(=O)[C@H](CO)NC(=O)[C@@H](Cc1ccc(O)cc1)NC(=O)[C@H](Cc1ccccc1)NC(=O)N1CCOCC1 [Compound 108, (2-9)[N-(N-alpha-Morpholinocarbonyl)-Phe^2 -D-Tyr^3 -D-Trp^6 -Pro^9 NHEt]LHRH] ({Morpholide-CO}-F[dY]SY[dW]LRP-NHEt)",0.182 nM
7,"CCNC(=O)[C@@H]1CCCN1C(=O)[C@H](CCCNC(=N)N)NC(=O)[C@H](CC(C)C)NC(=O)[C@@H](Cc1c[nH]c2ccccc12)NC(=O)[C@H](Cc1ccc(O)cc1)NC(=O)[C@H](CO)NC(=O)[C@H](Cc1c[nH]c2ccccc12)NC(=O)[C@H](Cc1c[nH]cn1)NC(=O)N1CCOCC1 [Compound 109, (2-9)[N-(N-alpha-Morpholinocarbonyl)-His^2 -D-Trp^6 -Pro^9 NHEt]LHRH] ({Morpholide-CO}-HWSY[dW]LRP-NHEt)",0.316 nM
8,"CCNC(=O)[C@@H]1CCCN1C(=O)[C@H](CCCNC(=N)N)NC(=O)[C@H](CC(C)C)NC(=O)[C@@H](Cc1c[nH]c2ccccc12)NC(=O)[C@H](Cc1ccc(O)cc1)NC(=O)[C@H](CO)NC(=O)[C@H](Cc1c[nH]c2ccccc12)NC(=O)[C@H](Cc1cccc2ccccc12)NC(=O)N1CCOCC1 [Compound 110, (2-9)[N-(N-alpha-Morpholinocarbonyl)-1-Nal^2 -D-Trp^6 -Pro^9 NHEt]LHRH] ({Morpholide-CO}-[1Nal]WSY[dW]LRP-NHEt)",0.1 nM
9,"CCNC(=O)[C@@H]1CCCN1C(=O)[C@H](CCCNC(=N)N)NC(=O)[C@H](CC(C)C)NC(=O)[C@@H](Cc1c[nH]c2ccccc12)NC(=O)[C@H](Cc1ccc(O)cc1)NC(=O)[C@H](CO)NC(=O)[C@H](Cc1c[nH]c2ccccc12)NC(=O)[C@@H](Cc1ccc2ccccc2c1)NC(=O)N1CCOCC1 [Compound 111, (2-9)[N-(N-alpha-Morpholinocarbonyl)-D-2-Nal^2 -D-Trp^6 -Pro^9 NHEt]LHRH] ({Morpholide-CO}-[d2Nal]WSY[dW]LRP-NHEt)",2.75 nM
10,"CCNC(=O)[C@@H]1CCCN1C(=O)[C@H](CCCNC(=N)N)NC(=O)[C@H](CC(C)C)NC(=O)[C@@H](Cc1c[nH]c2ccccc12)NC(=O)[C@H](Cc1ccc(O)cc1)NC(=O)[C@H](CO)NC(=O)[C@H](Cc1c[nH]c2ccccc12)NC(=O)[C@H](Cc1ccc(Cl)cc1)NC(=O)N1CCOCC1 [Compound 112, (2-9)[N-(N-alpha-Morpholinocarbonyl)-4-Cl -Phe^2 -D-Trp^6 -Pro^9 NHEt]LHRH] ({Morpholide-CO}-[Phe(4-Cl)]WSY[dW]LRP-NHEt)",0.316 nM

# Next, values leading:
row,Ki,SMILES
1,0.0776 nM,"CCNC(=O)[C@@H]1CCCN1C(=O)[C@H](CCCNC(=N)N)NC(=O)[C@H](CC(C)C)NC(=O)[C@@H](Cc1c[nH]c2ccccc12)NC(=O)[C@H](Cc1ccc(O)cc1)NC(=O)[C@H](CO)NC(=O)[C@H](Cc1c[nH]c2ccccc12)NC(=O)CCc1ccc(OC)cc1 [Compound 95, (3-9)[N-(3-(4-Methoxyphenyl)propionyl) -Trp^3 -D-Trp^6 -Pro^9 NHEt]LHRH] ({Propanoyl(3-(4-MeO-Ph))}-WSY[dW]LRP-NHEt)"
2,0.0331 nM,"CCNC(=O)[C@@H]1CCCN1C(=O)[C@H](CCCNC(=N)N)NC(=O)[C@H](CC(C)C)NC(=O)[C@@H](Cc1c[nH]c2ccccc12)NC(=O)[C@H](Cc1ccc(O)cc1)NC(=O)[C@H](CO)NC(=O)[C@H](Cc1c[nH]c2ccccc12)NC(=O)CCc1ccc(F)cc1 [Compound 97, (3-9)[N-(3-(4-Fluorophenyl)propionyl) -Trp^3 -D-Trp^6 -Pro^9 NHEt]LHRH] ({Propanoyl(3-(4-F-phenyl))}-WSY[dW]LRP-NHEt)"
3,0.0525 nM,"CCNC(=O)[C@@H]1CCCN1C(=O)[C@H](CCCNC(=N)N)NC(=O)[C@H](CC(C)C)NC(=O)[C@@H](Cc1c[nH]c2ccccc12)NC(=O)[C@H](Cc1ccc(O)cc1)NC(=O)[C@H](CO)NC(=O)[C@H](Cc1c[nH]c2ccccc12)NC(=O)CCc1ccc(Cl)cc1 [Compound 98, (3-9)[N-(3-(4-Chlorophenyl)propionyl) -Trp^3 -D-Trp^6 -Pro^9 NHEt]LHRH] ({Propanoyl(3-(4-Cl-Ph))}-WSY[dW]LRP-NHEt)"
4,0.0832 nM,"CCNC(=O)[C@@H]1CCCN1C(=O)[C@H](CCCN=C(N)N)NC(=O)[C@H](CC(C)C)NC(=O)[C@@H](Cc1c[nH]c2ccccc12)NC(=O)[C@H](Cc1ccc(O)cc1)NC(=O)[C@H](CO)NC(=O)[C@H](Cc1c[nH]c2ccccc12)NC(=O)CCc1ccc(O)cc1 [Compound 99, (3-9)[N-(3-(4-Hydroxyphenyl)propionyl) -Trp^3 -D-Trp^6 -Pro^9 NHEt]LHRH] (Desaminotyrosyl-WSY[dW]LRP-NHEt)"
5,12.6 nM,"CCNC(=O)[C@@H]1CCCN1C(=O)[C@H](CCCN=C(N)N)NC(=O)[C@H](CC(C)C)NC(=O)[C@@H](Cc1c[nH]c2ccccc12)NC(=O)[C@H](Cc1ccc(O)cc1)NC(=O)[C@H](CO)NC(=O)[C@H](Cc1c[nH]c2ccccc12)NC(=O)c1cc2ccccc2[nH]1 [Compound 101, (3-9)[N-(2-Indolecarbonyl)-Trp^3 -D-Trp^6 -Pro^9 NHEt]LHRH] (X16-WSY[dW]LRP-NHEt)"
6,17.4 nM,"CCNC(=O)[C@@H]1CCCN1C(=O)[C@H](CCCNC(=N)N)NC(=O)[C@H](CC(C)C)NC(=O)[C@@H](Cc1c[nH]c2ccccc12)NC(=O)[C@H](Cc1ccc(O)cc1)NC(=O)[C@H](CO)NC(=O)[C@@H](Cc1c[nH]c2ccccc12)NC(=O)c1cc2cc(F)ccc2[nH]1 [Compound 102, (3-9)[N-(5-Fluoro-2-indolecarbonyl)-D -Trp^3,6 -Pro^9 -NHEt]LHRH] ({Indole2carbonyl(5-F)}-[dW]SY[dW]LRP-NHEt)"
7,0.0794 nM,"CCNC(=O)[C@@H]1CCCN1C(=O)[C@H](CCCNC(=N)N)NC(=O)[C@H](CC(C)C)NC(=O)[C@@H](Cc1c[nH]c2ccccc12)NC(=O)[C@H](Cc1ccc(O)cc1)NC(=O)[C@H](CO)NC(=O)[C@@H](Cc1c[nH]c2ccccc12)NC(=O)CCc1c[nH]c2ccccc12 [Compound 103, (3-9)[N-(3-Indolepropionyl)-D-Trp^3,6 -Pro^9 -NHEt]LHRH] ({Propanoyl(3-indol-3-yl)}-[dW]SY[dW]LRP-NHEt)"
8,0.832 nM,"CCNC(=O)[C@@H]1CCCN1C(=O)[C@H](CCCNC(=N)N)NC(=O)[C@H](CC(C)C)NC(=O)[C@@H](Cc1c[nH]c2ccccc12)NC(=O)[C@H](Cc1ccc(O)cc1)NC(=O)[C@H](CO)NC(=O)[C@H](Cc1c[nH]c2ccccc12)NC(=O)Cc1ccc(Cl)cc1 [Compound 104, (3-9)[N-(4-Chlorophenyl)acetyl-Trp^3 -D-Trp^6 -Pro^9 NHEt]LHRH] ({Phenylacetyl(4-Cl)}-WSY[dW]LRP-NHEt)"
9,0.851 nM,"CCNC(=O)[C@@H]1CCCN1C(=O)[C@H](CCCNC(=N)N)NC(=O)[C@H](CC(C)C)NC(=O)[C@H](Cc1c[nH]c2ccccc12)NC(=O)[C@H](Cc1ccc(O)cc1)NC(=O)[C@H](CO)NC(=O)[C@H](Cc1c[nH]c2ccccc12)NC(=O)Cc1ccc(C(F)(F)F)cc1 [Compound 106, (3-9)[N-(4-Trifluoromethylphenyl)acetyl -Trp^3,6 -Pro^9 NHEt]LHRH] ({Phenylacetyl(4-CF3)}-WSYWLRP-NHEt)"
